Reference: US11149019B2, “Phenylpyridine derivative and pharmaceutical composition comprising the same” (Daewoong Pharmaceutical Co., Ltd., priority 2017, dated 2021)

Legend:
ITK = target: T1, ITK (Homo sapiens, UniProt Q08881); assay: ADP-Glo + ITK Kinase enzyme system kit, inhibitory activity against ITK; type: biochemical; conditions: ITK enzyme 0.4 ng/ul, ATP final concentration of 25 ul, 30° C. for 1 hour, luminescence, duplicate
T1 construct: purchased Promega Corporation
T1 sequence (Q08881 1-620): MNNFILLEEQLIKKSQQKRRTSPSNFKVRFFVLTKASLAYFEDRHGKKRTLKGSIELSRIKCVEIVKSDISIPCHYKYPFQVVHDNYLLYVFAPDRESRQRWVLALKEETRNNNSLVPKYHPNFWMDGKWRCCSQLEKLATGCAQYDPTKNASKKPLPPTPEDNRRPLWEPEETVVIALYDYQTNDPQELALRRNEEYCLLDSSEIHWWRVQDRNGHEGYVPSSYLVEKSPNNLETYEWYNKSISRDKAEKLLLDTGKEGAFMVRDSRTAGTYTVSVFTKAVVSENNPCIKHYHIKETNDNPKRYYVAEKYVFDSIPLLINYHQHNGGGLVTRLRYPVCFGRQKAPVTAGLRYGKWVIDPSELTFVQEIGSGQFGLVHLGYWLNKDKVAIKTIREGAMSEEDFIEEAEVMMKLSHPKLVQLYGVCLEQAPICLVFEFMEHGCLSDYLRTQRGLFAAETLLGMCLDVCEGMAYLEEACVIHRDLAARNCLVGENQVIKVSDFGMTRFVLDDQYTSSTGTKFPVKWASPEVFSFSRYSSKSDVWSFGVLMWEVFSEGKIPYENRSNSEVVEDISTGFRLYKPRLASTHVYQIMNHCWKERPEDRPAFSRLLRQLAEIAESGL
Protocol: (§1) Inhibitory activities against BTK and ITK were measured for the compounds prepared in the above Examples as follows.
The inhibitory activity against ITK was evaluated using ‘ADP-Glo™+ITK Kinase enzyme system’ kit (Promega Corporation). In a white 96-well plate, 10 ul of ITK enzyme prepared so as to have a final concentration of 0.4 ng/ul was mixed with 5 ul of compounds having a final concentration of 1 uM in the case of evaluating a single concentration of compound and a concentration of 1000, 300, 100, 30, 10, 3, 1, 0.3, 0.1 and 0.03 nM in the case of IC50 evaluation, and then reacted at room temperature for 15 minutes. To the plate on which reactions were completed, 5 ul of substrate and 5 ul of ATP prepared so as to have a final concentration of […] added and then allowed to react at 30° C. for 1 hour. All wells of the plate were treated with 25 ul of ADP-Glo™ reagent and then allowed to react at 30° C. for 40 minutes. After that, all wells were treated with 50 ul of kinase detection buffer, and then allowed to react at 30° C. for 30 minutes under light shielding conditions. For the plate on which all reactions were completed, luminescence was measured and the results were calculated. Evaluation was carried out in duplicate, and negative control and positive control were calculated depending on whether or not the enzyme was added without treatment of the compound. The IC50 was calculated based on the calculated values.

BTK = target: T2, BTK (Homo sapiens, UniProt Q06187); assay: ADP-Glo + BTK Kinase enzyme system kit, inhibitory activity against BTK; type: biochemical; conditions: BTK enzyme 1 ng/ul, ATP 10 μM, 30° C. for 1 hour, luminescence, duplicate
T2 construct: purchased Promega Corporation
T2 sequence (Q06187 whole entry): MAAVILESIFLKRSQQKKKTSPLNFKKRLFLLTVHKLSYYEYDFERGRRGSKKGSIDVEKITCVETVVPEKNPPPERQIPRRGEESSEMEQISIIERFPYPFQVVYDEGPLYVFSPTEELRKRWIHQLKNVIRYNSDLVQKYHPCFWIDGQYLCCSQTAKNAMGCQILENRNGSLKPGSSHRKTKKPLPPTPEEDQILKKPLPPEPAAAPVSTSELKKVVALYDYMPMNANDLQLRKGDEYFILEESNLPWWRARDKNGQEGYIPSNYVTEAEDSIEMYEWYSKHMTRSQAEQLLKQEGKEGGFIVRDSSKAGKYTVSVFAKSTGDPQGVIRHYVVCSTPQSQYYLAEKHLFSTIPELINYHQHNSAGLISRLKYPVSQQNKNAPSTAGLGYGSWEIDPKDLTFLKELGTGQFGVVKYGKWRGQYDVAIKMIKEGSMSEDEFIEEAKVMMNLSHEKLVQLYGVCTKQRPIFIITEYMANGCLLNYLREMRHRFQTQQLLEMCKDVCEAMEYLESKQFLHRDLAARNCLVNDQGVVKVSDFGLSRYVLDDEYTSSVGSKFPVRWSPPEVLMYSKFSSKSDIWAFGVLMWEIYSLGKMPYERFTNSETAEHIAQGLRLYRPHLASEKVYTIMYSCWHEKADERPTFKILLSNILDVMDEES
Protocol: as §1
The inhibitory activities against BTK were evaluated using ‘ADP-Glo™+BTK Kinase enzyme system’ kit (Promega Corporation). In a white 96-well plate, 10 ul of BTK enzyme prepared so as to have a final concentration of 1 ng/ul was mixed with 5 μl of compounds having a final concentration of […] the case of evaluating a single concentration of compound and a concentration of 1000, 300, 100, 30, 10, 3, 1, 0.3, 0.1 and 0.03 nM in the case of IC50 evaluation, and then reacted at room temperature for 15 minutes. 5 ul of substrate and 5 ul of ATP prepared so as to have a final concentration of 10 μM were added to the plate on which reactions were completed, and then allowed to react at 30° C. for 1 hour. All wells of the plate were treated with 25 ul of ADP-Glo™ reagent and allowed to react at 30° C. for 40 minutes. After that, all wells were treated with 50 ul of kinase detection buffer, and then reacted at 30° C. for 30 minutes under light shielding conditions. For the plate on which all reactions were completed, luminescence was measured and the results were calculated. Evaluation was carried out in duplicate, and negative control and positive control were calculated depending on whether or not the enzyme was added without treatment of the compound. The IC50 was calculated based on the calculated values.

| SMILES | IC50 (ITK) [nM] | IC50 (BTK) [nM] |
| --- | --- | --- |
| C=CC(=O)Nc1ccc(-c2cc(Cc3ccccc3)cc(Nc3cc(C)[nH]n3)n2)cc1 [Compound 1, N-(4-(4-benzyl-6-(5-methyl-1H-pyrazol-3-ylamino)pyridin-2-yl)phenyl)acrylamide] | 289 | > 1000 |
| C=CC(=O)Nc1cccc(-c2cc(Cc3ccccc3)cc(Nc3cc(C)[nH]n3)n2)c1 [Compound 2, N-(3-(4-benzyl-6-(5-methyl-1H-pyrazol-3-ylamino)pyridin-2-yl)phenyl)acrylamide] | 88.2 | 24.1 |
| C#CC(=O)Nc1ccc(-c2cc(Cc3ccccc3)cc(Nc3cc(C)[nH]n3)n2)cc1 [Compound 3, N-(4-(4-benzyl-6-((5-methyl-1H-pyrazol-3-yl)amino)pyridin-2-yl)phenyl)propiolamide] | 23.5 | 45.9 |
| C=CC(=O)Nc1cccc(-c2cc(Cc3ccccc3)cc(Nc3cc(C4CCCC4)[nH]n3)n2)c1 [Compound 4, N-(3-(4-benzyl-6-(5-cyclopentyl-1H-pyrazol-3-ylamino)pyridin-2-yl)phenyl)acrylamide] | 91.4 | 634 |
| C=CC(=O)Nc1cccc(-c2cc(Cc3ccccc3)cc(Nc3cc(-c4ccccc4)[nH]n3)n2)c1 [Compound 5, N-(3-(4-benzyl-6-((5-phenyl-1H-pyrazol-3-yl)amino)pyridin-2-yl)phenyl)acrylamide] | 317 | 777 |
| C#CC(=O)Nc1cccc(-c2cc(Cc3ccccc3)cc(Nc3cc(C)[nH]n3)n2)c1 [Compound 6, N-(3-(4-benzyl-6-((5-methyl-1H-pyrazol-3-yl)amino)pyridin-2-yl)phenyl)propiolamide] | > 500 | > 1000 |
| C=CC(=O)Nc1cccc(-c2cc(Cc3ccccc3)cc(Nc3cc(-c4ccc(Oc5ccccc5)cc4)[nH]n3)n2)c1 [Compound 7, N-(3-(4-benzyl-6-((5-(4-phenoxyphenyl)-1H-pyrazol-3-yl)amino)pyridin-2-yl)phenyl)acrylamide] | > 500 | 123 |
| C=CC(=O)Nc1cccc(-c2cc(Cc3ccccc3)cc(Nc3cc(Cc4ccc(C)cc4)[nH]n3)n2)c1 [Compound 8] | 572 | 308 |
| C=CC(=O)Nc1cccc(-c2cc(Cc3ccccc3)cc(Nc3cc(C(C)c4ccc(C)cc4)[nH]n3)n2)c1 (stereo not shown) [Compound 9] | > 1000 | > 1000 |
| C=CC(=O)Nc1cccc(-c2cc(Cc3ccccc3)cc(Nc3cc(CCc4ccccc4)[nH]n3)n2)c1 [Compound 10, N-(3-(4-benzyl-6-((5-phenethyl-1H-pyrazol-3-yl)amino)pyridin-2-yl)phenyl)acrylamide] | 502 | 65.1 |
| C=CC(=O)Nc1cccc(-c2cc(Cc3ccccc3)cc(Nc3cc[nH]n3)n2)c1 [Compound 11] | 134 | 17.5 |
| C=CC(=O)Nc1cccc(-c2cccc(Nc3cc(C)[nH]n3)n2)c1 [Compound 12] | 995 | 7.8 |
| C=CC(=O)Nc1cccc(-c2cccc(Nc3cc(C4CCCC4)[nH]n3)n2)c1 [Compound 13, N-(3-(6-((5-cyclopentyl-1H-pyrazol-3-yl)amino)pyridin-2-yl)phenyl)acrylamide] | 266 | 138 |
| C=CC(=O)Nc1cccc(-c2cccc(Nc3cc(-c4ccccc4)[nH]n3)n2)c1 [Compound 14, N-(3-(6-(5-phenyl-1H-pyrazol-3-ylamino)pyridin-2-yl)phenyl)acrylamide] | 399 | 350 |
| C=CC(=O)Nc1cccc(-c2cccc(Nc3cc[nH]n3)n2)c1 [Compound 15, N-(3-(6-(1H-pyrazol-3-ylamino)pyridin-2-yl)phenyl)acrylamide] | > 500 | 18 |
| C=CC(=O)Nc1cccc(-c2cc(C)cc(Nc3cc(C)[nH]n3)n2)c1 [Compound 16, N-(3-(4-methyl-6-(5-methyl-1H-pyrazol-3-ylamino)pyridin-2-yl)phenyl)acrylamide] | 192 | 6.1 |
| C=CC(=O)Nc1cccc(-c2cc(C(F)(F)F)cc(Nc3cc(C)[nH]n3)n2)c1 [Compound 17] | 131 | 11.1 |
| C=CC(=O)Nc1cccc(-c2cc(C)cc(Nc3ccccn3)n2)c1 [Compound 18, N-(3-(4-methyl-6-(pyridin-2-ylamino)pyridin-2-yl)phenyl)acrylamide] | > 1000 | 28.7 |
| C=CC(=O)Nc1cccc(-c2cc(CNC(C)C(C)(C)C)cc(Nc3cc(C)[nH]n3)n2)c1 (stereo not shown) [Compound 19] | > 500 | 74.7 |

Results, then the compound that gave them:

| IC50 (ITK) [nM] | IC50 (BTK) [nM] | SMILES |
| --- | --- | --- |
| 254 | 28.1 | C=CC(=O)Nc1cccc(-c2cc(C(=O)NC(C)C(C)(C)C)cc(Nc3cc(C)[nH]n3)n2)c1 (stereo not shown) [Compound 20, 2-(3-acrylamidophenyl)-N-(3,3-dimethylbutan-2-yl)-6-(5-methyl-1H-pyrazol-3-ylamino)isonicotinamide] |
| > 500 | 52.6 | C=CC(=O)Nc1cccc(-c2cc(C(=O)N(C)C)cc(Nc3cc(C)[nH]n3)n2)c1 [Compound 21, 2-(3-acrylamidophenyl)-N,N-dimethyl-6-((5-methyl-1H-pyrazol-3-yl)amino)isonicotinamide] |
| 77.8 | 6.1 | C=CC(=O)Nc1cccc(-c2cc(CN3CCOCC3)cc(Nc3cc(C)[nH]n3)n2)c1 [Compound 22, N-(3-(6-((5-methyl-1H-pyrazol-3-yl)amino)-4-(morpholinomethyl)pyridin-2-yl)phenyl)acrylamide] |
| 128 | 13.1 | C=CC(=O)Nc1cccc(-c2cc(-c3ccccc3)cc(Nc3cc(C)[nH]n3)n2)c1 [Compound 23, N-(3-(6-(5-methyl-1H-pyrazol-3-ylamino)-4-phenylpyridin-2-yl)phenyl)acrylamide] |
| 159 | 10.9 | C=CC(=O)Nc1cccc(-c2cc(C)cc(Nc3cc(CC)[nH]n3)n2)c1 [Compound 24, N-(3-(6-(5-ethyl-1H-pyrazol-3-ylamino)-4-methylpyridin-2-yl)phenyl)acrylamide] |
| 59.3 | 8.6 | C=CC(=O)Nc1cccc(-c2cc(C)cc(Nc3cc(C4CC4)[nH]n3)n2)c1 [Compound 25, N-(3-(6-((5-cyclopropyl-1H-pyrazol-3-yl)amino)-4-methylpyridin-2-yl)phenyl)acrylamide] |
| 76.4 | 10.5 | C=CC(=O)Nc1cccc(-c2cc(C)cc(Nc3ncc(C)s3)n2)c1 [Compound 26, N-(3-(4-methyl-6-((5-methylthiazol-2-yl)amino)pyridin-2-yl)phenyl)acrylamide] |
| 36.9 | 68.7 | C=CC(=O)Nc1cccc(-c2cc(CN3CCOCC3)cc(Nc3cc(C4CC4)[nH]n3)n2)c1 [Compound 27, N-(3-(6-((5-cyclopropyl-1H-pyrazol-3-yl)amino)-4-(morpholinomethyl)pyridin-2-yl)phenyl)acrylamide] |
| 8.1 | – | C=CC(=O)Nc1cccc(-c2cc(CN3CCN(C(=O)C(C)C)CC3)cc(Nc3ncc(C)s3)n2)c1 [Compound 62, N (3(4((4-isobutyrylpiperazin-1-yl)methyl)-6-(5-methylthiazol-2-ylamino)pyridin-2-yl)phenyl)acrylamide] |
